Values of other authors as cited in patent US20110275649A1, “Combination therapy for the prevention of statin induced diabetes” (Palmetto Pharmaceuticals LLC, priority 2010, published 2011).
Blank lines part the entries; values can stand above or below the compound they belong to.

Experiments:
[1] = compared with pravastatin
[2] = test system: carnitine palmitoyltransferase-1: CPT-1; details: in vitro studies; e.g. by inhibition of CPT-1
CYP3A4 = CYP3A4 (Homo sapiens, UniProt P08684)
late sodium channel = late sodium channel (Homo sapiens, UniProt Q14524)
Sequence of late sodium channel (Q14524 whole entry): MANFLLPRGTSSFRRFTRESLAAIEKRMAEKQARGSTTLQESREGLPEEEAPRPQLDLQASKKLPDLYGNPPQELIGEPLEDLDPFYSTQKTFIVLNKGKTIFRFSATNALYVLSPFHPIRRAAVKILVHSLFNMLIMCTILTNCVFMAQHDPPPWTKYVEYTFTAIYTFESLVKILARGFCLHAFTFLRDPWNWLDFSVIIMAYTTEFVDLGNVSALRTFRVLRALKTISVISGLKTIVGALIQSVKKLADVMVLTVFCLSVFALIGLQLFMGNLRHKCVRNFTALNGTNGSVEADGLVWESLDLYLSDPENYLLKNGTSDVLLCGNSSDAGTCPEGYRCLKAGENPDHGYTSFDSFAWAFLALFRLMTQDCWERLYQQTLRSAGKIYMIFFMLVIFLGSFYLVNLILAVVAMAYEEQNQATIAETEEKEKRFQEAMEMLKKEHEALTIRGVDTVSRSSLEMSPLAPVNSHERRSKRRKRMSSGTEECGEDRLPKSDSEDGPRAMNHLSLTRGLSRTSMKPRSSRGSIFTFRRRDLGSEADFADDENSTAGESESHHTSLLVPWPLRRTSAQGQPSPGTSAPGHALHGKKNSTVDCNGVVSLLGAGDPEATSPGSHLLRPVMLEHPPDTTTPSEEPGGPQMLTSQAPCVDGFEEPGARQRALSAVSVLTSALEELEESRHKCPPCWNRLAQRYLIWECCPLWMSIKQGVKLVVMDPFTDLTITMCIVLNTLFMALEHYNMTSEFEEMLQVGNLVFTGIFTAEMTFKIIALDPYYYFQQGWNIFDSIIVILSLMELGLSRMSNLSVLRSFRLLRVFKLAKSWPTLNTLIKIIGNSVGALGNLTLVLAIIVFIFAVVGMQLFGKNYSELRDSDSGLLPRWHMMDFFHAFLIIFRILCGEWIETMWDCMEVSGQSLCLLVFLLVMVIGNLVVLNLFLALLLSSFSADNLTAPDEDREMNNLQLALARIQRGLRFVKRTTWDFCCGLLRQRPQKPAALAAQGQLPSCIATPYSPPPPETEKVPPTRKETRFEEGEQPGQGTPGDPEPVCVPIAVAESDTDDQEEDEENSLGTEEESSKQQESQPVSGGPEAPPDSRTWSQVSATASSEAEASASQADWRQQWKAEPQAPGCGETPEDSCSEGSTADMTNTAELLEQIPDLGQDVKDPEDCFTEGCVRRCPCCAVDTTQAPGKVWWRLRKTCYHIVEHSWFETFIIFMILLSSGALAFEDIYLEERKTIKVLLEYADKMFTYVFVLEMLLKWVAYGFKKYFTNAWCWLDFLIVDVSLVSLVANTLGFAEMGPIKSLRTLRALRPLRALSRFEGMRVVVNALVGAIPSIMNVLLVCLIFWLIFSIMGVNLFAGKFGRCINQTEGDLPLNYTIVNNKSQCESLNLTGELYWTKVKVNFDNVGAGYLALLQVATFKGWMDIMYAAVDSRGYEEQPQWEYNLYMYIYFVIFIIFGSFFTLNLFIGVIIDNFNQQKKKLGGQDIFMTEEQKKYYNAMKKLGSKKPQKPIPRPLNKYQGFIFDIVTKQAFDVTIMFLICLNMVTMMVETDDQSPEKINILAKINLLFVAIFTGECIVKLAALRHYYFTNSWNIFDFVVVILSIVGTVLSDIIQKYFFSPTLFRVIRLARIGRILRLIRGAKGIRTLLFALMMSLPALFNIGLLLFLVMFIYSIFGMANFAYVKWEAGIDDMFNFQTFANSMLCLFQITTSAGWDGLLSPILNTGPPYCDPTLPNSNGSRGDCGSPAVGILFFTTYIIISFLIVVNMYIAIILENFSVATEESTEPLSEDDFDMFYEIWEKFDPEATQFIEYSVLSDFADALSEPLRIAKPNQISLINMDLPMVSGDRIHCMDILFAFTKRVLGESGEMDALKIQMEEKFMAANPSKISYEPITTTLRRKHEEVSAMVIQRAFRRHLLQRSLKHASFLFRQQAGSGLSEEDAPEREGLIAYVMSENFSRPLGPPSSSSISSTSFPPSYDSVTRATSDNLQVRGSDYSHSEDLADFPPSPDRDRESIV

[3] = JUPITER trial
[4] = test system: 3-keto-CoA-thiolase, or 3-KAT

Sequence of CYP3A4 (P08684 whole entry): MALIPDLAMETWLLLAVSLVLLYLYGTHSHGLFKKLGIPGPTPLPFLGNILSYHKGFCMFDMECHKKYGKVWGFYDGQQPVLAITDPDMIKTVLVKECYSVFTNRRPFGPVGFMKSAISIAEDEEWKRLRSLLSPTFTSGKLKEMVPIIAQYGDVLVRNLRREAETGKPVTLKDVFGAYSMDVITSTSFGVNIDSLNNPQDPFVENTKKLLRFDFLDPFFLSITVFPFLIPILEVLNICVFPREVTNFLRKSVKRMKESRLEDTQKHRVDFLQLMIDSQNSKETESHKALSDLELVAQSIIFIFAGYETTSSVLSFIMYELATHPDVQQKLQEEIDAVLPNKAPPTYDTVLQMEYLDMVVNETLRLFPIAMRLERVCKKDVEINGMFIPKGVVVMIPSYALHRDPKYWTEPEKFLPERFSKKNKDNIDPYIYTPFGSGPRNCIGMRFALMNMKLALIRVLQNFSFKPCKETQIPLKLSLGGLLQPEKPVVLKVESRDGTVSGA

SMILES: CC(C)c1c(C(=O)Nc2ccccc2)c(-c2ccccc2)c(-c2ccc(F)cc2)n1CC[C@@H](O)C[C@@H](O)CC(=O)O [atorvastatin]
- likelihood to induce diabetes [1]: much more likely to induce diabetes than pravastatin

SMILES: C1CCC(C(CC2CCCCN2)C2CCCCC2)CC1 (stereo not drawn) [perhexiline]
- myocardial fatty acid catabolism [2]: causes inhibition of myocardial fatty acid catabolism

SMILES: O=C(O)C[C@H](O)C[C@H](O)/C=C/c1c(C2CC2)nc2ccccc2c1-c1ccc(F)cc1 [pitavastatin]
- metabolism by CYP3A4 (CYP3A4): does not undergo metabolism by the 3A4 system

- lipid / water solubility: water soluble
SMILES: CC[C@H](C)C(=O)O[C@H]1C[C@H](O)C=C2C=C[C@H](C)[C@H](CC[C@@H](O)C[C@@H](O)CC(=O)O)[C@H]21 [pravastatin]

- late sodium channel inhibition (late sodium channel): inhibits the late sodium channel
SMILES: COc1ccccc1OCC(O)CN1CCN(CC(=O)Nc2c(C)cccc2C)CC1 (stereo not drawn) [ranolazine]
- arrhythmogenic events from QT prolongation (QT interval; Merlin-TIMI 36): did not cause excess arrythmogenic events
- QT interval (QT interval; in vivo): causes QT interval prolongation

- diabetes in the group receiving the statin [3]: increase in diabetes
SMILES: CC(C)c1nc(N(C)S(C)(=O)=O)nc(-c2ccc(F)cc2)c1/C=C/[C@@H](O)C[C@@H](O)CC(=O)O [rosuvastatin]

SMILES: COc1ccc(CN2CCNCC2)c(OC)c1OC [trimetazidine]
- inhibition of 3-KAT [4]: inhibition of the enzyme 3-keto-CoA-thiolase
